Tests used:
[1] = UV absorption and fluorescence emission spectra; assay type: physicochemical; settings: in PBS, cRGD-ILD C ICG = 10 µg mL^−1, ICG 5 µg/mL
Procedure: The ^1H NMR spectra were conducted utilizing a Varian Unity 400 MHz Spectrometer ([…]) in a variety of deuterated solvents. ESI‐MS were obtained with a Thermo Scientific LTQ XL mass spectrometer (Thermo, USA). UV absorption spectra were measured by a Unico UV‐2000 UV–vis Spectrophotometer (Shanghai, China). Photoluminescence excitation and emission spectra were recorded using an FSP920‐combined Time Resolved and Steady State Fluorescence Spectrometer (Edinburgh, UK), equipped with a 450‐W xenon lamp. Both the UV and fluorescence spectrophotometers were scanned within the wavelength range of 650–850 nm.

[2] = free ICG; cited from earlier work
[3] = parameters: method as in earlier work; settings: clinically approved contrast agent; cited from earlier work

SMILES | fluorescence emission peak ([1]; λex = 755 nm) [nm] | absorption peak [1] [nm] | Photothermal conversion efficiency (PCE) [2] [%] | T 1 relaxivities (r 1) [3] [mM⁻¹ s⁻¹]
CC1(C)C(/C=C/C=C/C=C/C=C2\N(CCCCS(=O)(=O)O)c3ccc4ccccc4c3C2(C)C)=[N+](CCCCS(=O)(=O)[O-])c2ccc3ccccc3c21 [ICG, indocyanine green, reference compound] | 764 | 755 | 15.8 | –
CNC[C@H](O)[C@@H](O)[C@H](O)[C@H](O)CO.CNC[C@H](O)[C@@H](O)[C@H](O)[C@H](O)CO.O=C([O-])CN(CCN(CC(=O)[O-])CC(=O)O)CCN(CC(=O)[O-])CC(=O)O.[Gd+3] [Magnevist] | – | – | – | 5.35

From publication PMC12631912, “A Multifunctional Molecular Probe for Multimodal Imaging‐Guided Potent Photothermal/Photodynamic Therapy of Endometriosis” (Advanced Science, 2025)
